Experimental data as given in PMC6723439, “The Aryl Hydrocarbon Receptor (AhR) Mediates the Counter-Regulatory Effects of Pelargonidins in Models of Inflammation and Metabolic Dysfunctions” (Nutrients, 2019).

Columns and labels:
[1] = molecular target: T1, aryl hydrocarbon receptor (AhR) (Homo sapiens, UniProt P35869); test: AhR luciferase reporter transactivation in AhR-transfected HepG2 cells; effects lost in AhR-/- macrophages; assay type: cell-based
T1 construct: pCMVXL4AhR transfected in HepG2 cells
T1 sequence (P35869 11-848): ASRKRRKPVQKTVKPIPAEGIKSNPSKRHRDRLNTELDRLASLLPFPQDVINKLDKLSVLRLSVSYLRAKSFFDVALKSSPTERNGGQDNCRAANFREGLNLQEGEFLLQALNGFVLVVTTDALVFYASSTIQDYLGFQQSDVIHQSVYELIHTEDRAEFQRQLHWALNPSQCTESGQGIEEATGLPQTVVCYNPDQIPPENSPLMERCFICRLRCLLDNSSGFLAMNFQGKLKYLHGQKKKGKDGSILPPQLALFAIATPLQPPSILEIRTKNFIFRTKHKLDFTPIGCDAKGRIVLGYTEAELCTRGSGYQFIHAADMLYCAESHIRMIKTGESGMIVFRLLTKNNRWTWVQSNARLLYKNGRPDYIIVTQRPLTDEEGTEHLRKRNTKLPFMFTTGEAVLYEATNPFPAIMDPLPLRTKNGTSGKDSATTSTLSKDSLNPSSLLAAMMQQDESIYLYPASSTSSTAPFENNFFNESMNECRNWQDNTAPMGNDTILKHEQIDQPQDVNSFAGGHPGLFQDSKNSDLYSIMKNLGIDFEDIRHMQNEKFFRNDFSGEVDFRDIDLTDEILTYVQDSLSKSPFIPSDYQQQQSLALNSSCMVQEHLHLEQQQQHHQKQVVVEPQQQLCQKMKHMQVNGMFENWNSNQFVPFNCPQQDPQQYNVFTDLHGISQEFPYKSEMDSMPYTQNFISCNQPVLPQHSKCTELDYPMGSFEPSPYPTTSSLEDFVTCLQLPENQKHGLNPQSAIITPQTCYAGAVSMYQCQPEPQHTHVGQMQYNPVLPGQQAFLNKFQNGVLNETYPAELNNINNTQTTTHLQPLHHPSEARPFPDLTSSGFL

[2] = molecular target: T1, aryl hydrocarbon receptor (AhR); test: AhR luciferase reporter transactivation in AhR-transfected HepG2 cells; assay type: cell-based

| EC50 [1] [µM] | SMILES | EC50 [2] [µM] |
| --- | --- | --- |
| 1.97 | COc1ccc(-c2[o+]c3cc(OC)cc(OC)c3cc2O)cc1 [Mt-P, methylated pelargonidin] | – |
| – | Oc1ccc(-c2[o+]c3cc(O)cc(O)c3cc2O)cc1 [P, pelargonidin] | 4 |
